# Measured values from ChEMBL document CHEMBL5532682, “Recent advances of tryptanthrin and its derivatives as potential anticancer agents” (RSC Med Chem, 2024).
# Legend:
# [1] = test system: A549; assay: Antiproliferative activity against human A549 cells; assay type: functional, cell-based
# [2] = Antiproliferative activity against mouse MC3T3-E1 cells; assay type: toxicity, cell-based
# [3] = test system: A549; assay: Antiproliferative activity against human A549 cells measured after 48 hrs by MTT assay; assay type: functional, cell-based; conditions: A549, 48 h
# [4] = test system: MDA-MB-231; assay: Antiproliferative activity against human MDA-MB-231 cells measured after 48 hrs by MTT assay; assay type: functional, cell-based; conditions: MDA-MB-231, 48 h
# [5] = test system: HCT-116; assay: Antiproliferative activity against human HCT-116 cells measured after 48 hrs by MTT assay; assay type: functional, cell-based; conditions: HCT-116, 48 h
# [6] = test system: HeLa; assay: Antiproliferative activity against human HeLa cells assessed as inhibition of cell growth; assay type: functional, cell-based
# [7] = test system: MCF7; assay: Antiproliferative activity against human MCF7 cells assessed as inhibition of cell growth; assay type: functional, cell-based
# [8] = test system: A549; assay: Antiproliferative activity against human A549 cells assessed as inhibition of cell growth; assay type: functional, cell-based
# [9] = test system: A549; assay: Antiproliferative activity against human A549 cells measured after 48 hrs; assay type: functional, cell-based; conditions: A549, 48 h
# [10] = test system: MDA-MB-231; assay: Antiproliferative activity against human MDA-MB-231 cells measured after 48 hrs; assay type: functional, cell-based; conditions: MDA-MB-231, 48 h
# [11] = test system: HCT-116; assay: Antiproliferative activity against human HCT-116 cells measured after 48 hrs; assay type: functional, cell-based; conditions: HCT-116, 48 h
compound,measurement,setting,value
O=C1c2ccccc2-n2c1nc1cc(Cl)ccc1c2=O,IC50,[1],> 100 µM
same,IC50,[2],> 100 µM
CCN(CC)c1cccc2c1C(=O)c1nc3ccccc3c(=O)n1-2,IC50,[3],> 100 µM
same,IC50,[4],48.3 µM
same,IC50,[5],1.62 µM
CN1CCN(c2cccc3c2C(=O)c2nc4ccccc4c(=O)n2-3)CC1,IC50,[3],> 100 µM
same,IC50,[4],> 100 µM
same,IC50,[5],45.6 µM
O=C1C2C=CC=CC2=NC2/C(=N\Nc3nc(-c4ccc(O)cc4)cs3)c3ccccc3N12 (stereo unspecified),IC50,[6],7.22 µM
same,IC50,[7],31.6 µM
same,IC50,[8],28.8 µM
O=C1c2ccccc2-n2c1nc1ccc(F)c(Cl)c1c2=O,IC50,[1],> 100 µM
same,IC50,[2],> 100 µM
COc1ccc(-c2cs/c(=N/N=C3/c4ccccc4-n4c3nc3ccccc3c4=O)n2-c2ccccc2)cc1,IC50,[6],40.2 µM
same,IC50,[7],52.3 µM
same,IC50,[8],63 µM
O=C1c2c(ccc(Cl)c2N2CCN(c3ccccn3)CC2)-n2c1nc1ccccc1c2=O,IC50,[3],> 100 µM
same,IC50,[4],> 100 µM
same,IC50,[5],> 100 µM
CN(C)c1c(F)ccc2c1C(=O)c1nc3ccccc3c(=O)n1-2,IC50,[3],> 100 µM
same,IC50,[4],89.7 µM
same,IC50,[5],> 100 µM
O=C1c2ccccc2-n2c1nc1ccc(Cl)c(Cl)c1c2=O,IC50,[1],> 100 µM
same,IC50,[2],> 100 µM
CN(C)c1cccc2c1C(=O)c1nc3ccccc3c(=O)n1-2,IC50,[9],> 100 µM
same,IC50,[10],> 100 µM
same,IC50,[11],> 100 µM
CN(C)c1c(Cl)ccc2c1C(=O)c1nc3ccccc3c(=O)n1-2,IC50,[3],18.6 µM
same,IC50,[4],14.7 µM
same,IC50,[5],25.7 µM
O=C1c2c(ccc(Cl)c2N2CCN(CCO)CC2)-n2c1nc1ccccc1c2=O,IC50,[3],22.8 µM
same,IC50,[4],32.8 µM
same,IC50,[5],> 100 µM
COc1ccc(-c2csc(N/N=C3/c4ccccc4N4C(=O)C5C=CC=CC5=NC34)n2)cc1 (stereo unspecified),IC50,[6],65.5 µM
same,IC50,[7],45.9 µM
same,IC50,[8],52 µM
O=C1c2c(ccc(F)c2Cl)-n2c1nc1cc(Cl)ccc1c2=O,IC50,[1],1.03 µM
same,IC50,[2],82 µM
O=C1c2c(N3CCN(CCO)CC3)cccc2-n2c1nc1ccccc1c2=O,IC50,[3],> 100 µM
same,IC50,[4],34.2 µM
same,IC50,[5],> 100 µM
CN1CCN(c2c(Cl)ccc3c2C(=O)c2nc4ccccc4c(=O)n2-3)CC1,IC50,[3],> 100 µM
same,IC50,[4],> 100 µM
same,IC50,[5],> 100 µM
N#Cc1ccc(-c2cs/c(=N/N=C3/c4ccccc4-n4c3nc3ccccc3c4=O)n2-c2ccccc2)cc1,IC50,[6],43.8 µM
same,IC50,[7],44.4 µM
same,IC50,[8],28.8 µM
O=c1c2ccccc2nc2n1-c1ccccc1/C2=N/N=c1/scc(-c2ccc(Cl)cc2)n1-c1ccccc1,IC50,[6],75.2 µM
same,IC50,[7],46.1 µM
same,IC50,[8],65.5 µM
CCN(CC)c1c(F)ccc2c1C(=O)c1nc3ccccc3c(=O)n1-2,IC50,[3],1.2 µM
same,IC50,[4],0.8 µM
same,IC50,[5],2.01 µM
Cc1ccc2c(c1N1CCN(c3ccccn3)CC1)C(=O)c1nc3ccccc3c(=O)n1-2,IC50,[3],> 100 µM
same,IC50,[4],> 100 µM
same,IC50,[5],> 100 µM
O=C1c2cc(Cl)c(N3CCCCC3)cc2-n2c1nc1ccccc1c2=O,IC50,[9],> 100 µM
same,IC50,[10],> 100 µM
same,IC50,[11],> 100 µM
O=c1c2ccccc2nc2n1-c1ccccc1/C2=N/N=c1/scc(-c2ccc(Br)cc2)n1-c1ccccc1,IC50,[6],55.5 µM
same,IC50,[7],31.6 µM
same,IC50,[8],64.9 µM
Cc1ccc2c(c1N1CCNCC1)C(=O)c1nc3ccccc3c(=O)n1-2,IC50,[3],> 100 µM
same,IC50,[4],69.8 µM
same,IC50,[5],67.2 µM
Cc1ccc2c(c1N1CCOCC1)C(=O)c1nc3ccccc3c(=O)n1-2,IC50,[3],> 100 µM
same,IC50,[4],58.7 µM
same,IC50,[5],> 100 µM
Cc1ccc2c(c1N1CCN(CCO)CC1)C(=O)c1nc3ccccc3c(=O)n1-2,IC50,[3],> 100 µM
same,IC50,[4],> 100 µM
same,IC50,[5],> 100 µM
O=C1c2cc(F)ccc2-n2c1nc1cc(Cl)ccc1c2=O,IC50,[1],> 100 µM
same,IC50,[2],> 100 µM
O=c1c2ccccc2nc2n1-c1ccccc1/C2=N/N=c1/scc(-c2ccc(O)cc2)n1-c1ccccc1,IC50,[6],55.1 µM
same,IC50,[7],58.5 µM
same,IC50,[8],38.3 µM
O=C1C2C=CC=CC2=NC2/C(=N\Nc3nc(-c4ccccc4)cs3)c3ccccc3N12 (stereo unspecified),IC50,[6],46 µM
same,IC50,[7],40.5 µM
same,IC50,[8],52 µM
Cc1ccc2c(c1N1CCCCC1)C(=O)c1nc3ccccc3c(=O)n1-2,IC50,[3],> 100 µM
same,IC50,[4],> 100 µM
same,IC50,[5],> 100 µM
O=C1C2C=CC=CC2=NC2/C(=N\Nc3nc(-c4ccc([N+](=O)[O-])cc4)cs3)c3ccccc3N12 (stereo unspecified),IC50,[6],67 µM
same,IC50,[7],59.1 µM
same,IC50,[8],49.1 µM
O=C1c2c(ccc(F)c2Cl)-n2c1nc1ccc(F)c(Cl)c1c2=O,IC50,[1],0.51 µM
same,IC50,[2],68.3 µM
CCN(CC)c1cc2c(cc1Cl)C(=O)c1nc3ccccc3c(=O)n1-2,IC50,[9],1.48 µM
same,IC50,[10],1.78 µM
same,IC50,[11],1.29 µM
O=c1c2ccccc2nc2n1-c1ccccc1/C2=N/N=c1/scc(-c2ccccc2)n1-c1ccccc1,IC50,[6],56.6 µM
same,IC50,[7],50.2 µM
same,IC50,[8],51.6 µM
O=C1c2cc(Cl)ccc2-n2c1nc1cc(Cl)ccc1c2=O,IC50,[1],> 100 µM
same,IC50,[2],> 100 µM
O=C1c2c(ccc(F)c2N2CCOCC2)-n2c1nc1ccccc1c2=O,IC50,[3],> 100 µM
same,IC50,[4],> 100 µM
same,IC50,[9],> 100 µM
same,IC50,[5],> 100 µM
same,IC50,[10],> 100 µM
same,IC50,[11],> 100 µM
O=C1c2c(ccc(Cl)c2N2CCOCC2)-n2c1nc1ccccc1c2=O,IC50,[3],> 100 µM
same,IC50,[4],> 100 µM
same,IC50,[5],10.7 µM
O=c1c2ccccc2nc2n1-c1ccccc1/C2=N/N=c1/scc(-c2ccc(F)cc2)n1-c1ccccc1,IC50,[6],52 µM
same,IC50,[7],60.1 µM
same,IC50,[8],44.4 µM
CN1CCN(c2c(F)ccc3c2C(=O)c2nc4ccccc4c(=O)n2-3)CC1,IC50,[3],> 100 µM
same,IC50,[4],> 100 µM
same,IC50,[5],> 100 µM
O=C1c2c(ccc(Cl)c2N2CCCCC2)-n2c1nc1ccccc1c2=O,IC50,[3],> 100 µM
same,IC50,[4],> 100 µM
same,IC50,[5],> 100 µM
Cc1ccc2c(c1N(C)C)C(=O)c1nc3ccccc3c(=O)n1-2,IC50,[3],98 µM
same,IC50,[4],87.3 µM
same,IC50,[5],> 100 µM
O=C1c2c(ccc(Cl)c2Cl)-n2c1nc1ccc(F)c(Cl)c1c2=O,IC50,[1],> 100 µM
same,IC50,[2],67.2 µM
O=C1c2cc(Cl)ccc2-n2c1nc1ccc(Cl)c(Cl)c1c2=O,IC50,[1],> 100 µM
same,IC50,[2],> 100 µM
O=C1c2c(ccc(F)c2N2CCNCC2)-n2c1nc1ccccc1c2=O,IC50,[3],> 100 µM
same,IC50,[4],65.8 µM
same,IC50,[5],> 100 µM
Cc1ccc2c(c1N1CCN(C)CC1)C(=O)c1nc3ccccc3c(=O)n1-2,IC50,[3],52.6 µM
same,IC50,[4],> 100 µM
same,IC50,[5],> 100 µM
CCN(CC)c1c(Cl)ccc2c1C(=O)c1nc3ccccc3c(=O)n1-2,IC50,[3],1.48 µM
same,IC50,[4],1.78 µM
same,IC50,[5],1.29 µM
O=C1c2cc(F)ccc2-n2c1nc1ccc(F)c(Cl)c1c2=O,IC50,[1],> 100 µM
same,IC50,[2],89.7 µM
O=C1c2c(ccc(Cl)c2N2CCNCC2)-n2c1nc1ccccc1c2=O,IC50,[3],34.5 µM
same,IC50,[4],31.6 µM
same,IC50,[5],> 100 µM
O=c1c2ccccc2nc2n1-c1ccccc1/C2=N/N=c1/scc(-c2ccc([N+](=O)[O-])cc2)n1-c1ccccc1,IC50,[6],67 µM
same,IC50,[7],43.1 µM
same,IC50,[8],52.8 µM
O=C1c2cc(Cl)ccc2-n2c1nc1ccc(F)c(Cl)c1c2=O,IC50,[1],> 100 µM
same,IC50,[2],> 100 µM
O=C1c2c(ccc(F)c2N2CCCCC2)-n2c1nc1ccccc1c2=O,IC50,[3],> 100 µM
same,IC50,[4],> 100 µM
same,IC50,[9],> 100 µM
same,IC50,[5],64.2 µM
same,IC50,[10],> 100 µM
same,IC50,[11],64.2 µM
CC[C@@]1(O)C(=O)OCc2c1cc1n(c2=O)Cc2cc3ccccc3nc2-1 [CAMPTOTHECIN],IC50,[1],0.39 µM
